According to patent US8592428B2 (MSD K. K., priority 2008, dated 2013):
Converted amounts (≈) assume the structure as drawn.

Legend:
[1] = target: T1, recombinant human liver GK (Homo sapiens, UniProt P35557); test: Glucokinase-activating effect (Thio-NADH coupled G6PDH assay); format: biochemical; conditions: final glucose concentration 2.5 mM, 30° C.; for Emax: OD level of DMSO control = 100%
T1 construct: made in house; host or cells: E. coli
T1 sequence (P35557 1-466 isoform P35557-2): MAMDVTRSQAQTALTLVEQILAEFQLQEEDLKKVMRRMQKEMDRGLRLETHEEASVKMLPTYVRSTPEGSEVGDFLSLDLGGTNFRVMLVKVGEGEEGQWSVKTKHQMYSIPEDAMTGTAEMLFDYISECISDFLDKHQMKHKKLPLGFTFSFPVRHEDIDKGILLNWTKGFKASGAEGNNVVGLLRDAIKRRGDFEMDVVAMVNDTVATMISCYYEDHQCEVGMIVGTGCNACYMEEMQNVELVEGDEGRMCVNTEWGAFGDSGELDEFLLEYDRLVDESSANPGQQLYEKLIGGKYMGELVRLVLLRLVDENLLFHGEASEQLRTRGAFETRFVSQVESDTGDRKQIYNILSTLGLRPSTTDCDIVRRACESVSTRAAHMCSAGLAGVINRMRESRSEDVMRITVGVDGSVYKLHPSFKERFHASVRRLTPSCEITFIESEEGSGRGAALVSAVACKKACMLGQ
Description: The excellent glucokinase-activating effect of the compounds of formula (I) may be determined by a method described in literature (for example, Diabetes, Vol. 45, pp. 1671-1677, 1996), or in accordance with it.
The glucokinase activity may be determined not by directly measuring glucose-6-phosphate but by measuring the level of Thio-NADH, which is produced when a reporter enzyme, glucose-6-phosphate dehydrogenase produces phosphogluconolactone from glucose-6-phosphate, and based on the level, the degree of glucokinase activation by the compound tested may be determined.
In this assay, used was a recombinant human liver GK, which was expressed by E. coli as a FLAG fusion protein therein and was purified by […] M2 AFFINITY GEL (Sigma).
Using a flat-bottomed 96-well plate, the assay was carried out at 30° C. 69 μl of an assay buffer (25 mM Hepes Buffer/pH=7.2, 2 mM MgCl2, 1 mM ATP, 0.5 mM TNAD, 1 mM dithiothreitol) was put into the plate, and 1 μl of a DMSO solution of the compound or DMSO alone as a control was added thereto. Next, 20 μl of an enzyme mixture (FLAG-GK, 20 U/ml G6PDH) cooled in ice was added to it, and 10 μl of a substrate, 25 mM glucose was added to it, and the reaction was initiated (final glucose concentration=2.5 mM).
After the start of the reaction, the increase in the absorbance at 405 nm was measured for 12 minutes at intervals of 30 seconds, and the increase for the first 5 minutes was used for assessing the compound tested. FLAG-GK was added so that the absorbance increase after 5 minutes in the presence of 1% DMSO could be from 0.04 to 0.06.
The OD level of the DMSO control was set as 100%; and the OD level of the test compound at different concentrations was determined. From the OD level at each concentration, Emax (%) and EC50 (μM) were computed and used as the index of the GK-activating potency of the compound.

[2] = Solubility in water by solution precipitation method (HPLC); format: physicochemical; conditions: water (2% DMSO), kinetic from dmso stock, from 10 mM DMSO solution, 60 minutes stirring at room temperature, compounds of the present invention
Method: For solubility in water, the solubility of a compound in water was determined by a solution precipitation method.
For an HPLC system, Agilent HPLC 1100 system was used. […] For a shaker, Microincubator M-36 (Taitec) was used. For a plate, a 96-deep well plate (Nunc. 260252) was used. For a well cap, Pre-Slit Well Cap for 96 Well PP (NALGENE. 276011) was used. For a filtration plate, MultiScreen Solubility (Millipore; MSSLBPC10) was used. For dispensation, an 8-channel electronic multipipette, Biohit Proline (Biohit), and a 96-well automatic pipetting device, Biomeck 2000 (Biomeck) were used. For a reagent used, a pure solvent for DMSO ultraviolet absorption spectrum (Dojindo 349-01025) and water (MiliQ water, manufactured by Millipore).
For a DMSO solution, a sample was prepared with DMSO to be precisely 10 mM.
Precise dispensation of 10 μL of a DMSO solution into each well of a 96-well plate was performed. Following addition of 490 μL of water to each of the wells and plate-sealing with 96-well Cap (Agilent No. 5042-1389), intense stirring processing of the plate was performed for 60 minutes at room temperature on a shaker. Subsequently, 200 μL of a treatment sample was added to a plate for centrifugal filtration, and centrifugal filtration of the sample was performed to obtain a filtrate. A sample solution was made by adding 200 μl, of a 50% aqueous acetonitrile solution to the provided filtrate.
Precise dispensation of 10 μL of a DMSO solution into each well of a 96-well plate was performed.
Detection was performed using a multi-wavelength detector (190-370 nm). For a column, the above-mentioned column was used at 40° C. A flow rate was set at 1.2 ml/min, and an amount of an injected sample at 20 μL. For a moving phase, a 0.1% aqueous phosphoric acid solution as a liquid A and acetonitrile as a liquid B were used to carry out analyses in accordance with a time schedule described below.
For the analyses, the data of UV 275 nm were adopted. […] Using the calibration curve, regression calculation of concentrations in water was carried out from Area of sample solutions (water).

With `COCc1ccc(Oc2cc3cc(-c4cnc(CO)cn4)[nH]c3cc2[C@H]2CCCN2C(C)=O)cn1` [Example 16, 6-[(R)-1-acetylpyrrolidin-2-yl]-2-(5-hydroxymethylpyrazin-2-yl)-5-(6-methoxymethylpyridin-3-yloxy)-1H-indole] the EC50 [1] was 170 nM and the solubility at 60 min [2] was > 170 µM.
For `CC(=O)N1CCC[C@@H]1c1cc2[nH]c(-c3cnc(C)cn3)cc2cc1Oc1ccc(S(C)(=O)=O)nc1` [Example 3, 6-[(R)-1-acetylpyrrolidin-2-yl]-5-(6-methylsulfonylpyridin-3-yloxy)-2-(5-methylpyrazin-2-yl)-1H-indole], the EC50 [1] was 120 nM and the solubility at 60 min [2] was > 170 µM.
With `CC(=O)N1CCC[C@@H]1c1cc2[nH]c(-c3cnc(C)cn3)cc2cc1Oc1ccc(OCCO)nc1` [Example 13, 6-[(R)-1-acetylpyrrolidin-2-yl]-5-[6-(2-hydroxyethoxy)pyridin-3-yloxy]-2-(5-methylpyrazin-2-yl)-1H-indole] the Emax [1] was 995%, the EC50 [1] was 230 nM and the solubility at 60 min [2] was 93.7 µM (≈ 44.4 µg/mL).
For `CC(=O)N1CCC[C@@H]1c1cc2[nH]c(-c3cnc(CO)cn3)cc2cc1Oc1ccc(S(C)(=O)=O)nc1` [Example 10, 6-[(R)-1-acetylpyrrolidin-2-yl]-2-(5-hydroxymethylpyrazin-2-yl)-5-(6-methylsulfonylpyridin-3-yloxy)-1H-indole], the EC50 [1] was 110 nM and the solubility at 60 min [2] was 95.1 µM (≈ 48.3 µg/mL).
In the case of `CC(=O)N1CCC[C@@H]1c1cc2[nH]c(-c3cnccn3)cc2cc1Oc1ccc(S(C)(=O)=O)nc1` [Example 2], the EC50 [1] is reported as 90 nM and the solubility at 60 min [2] is reported as > 170 µM.
In the case of `CC(=O)N1CCC[C@@H]1c1cc2[nH]c(-c3ccn(C)n3)cc2cc1Oc1ccc(S(C)(=O)=O)nc1` [Example 4, 6-[(R)-1-acetylpyrrolidin-2-yl]-2-(1-methyl-1H-pyrazol-3-yl)-5-(6-methylsulfonylpyridin-3-yloxy)-1H-indole], the Emax [1] is reported as 943%, the EC50 [1] is reported as 180 nM and the solubility at 60 min [2] is reported as > 170 µM.
For `CCN(CC)C(=O)c1ccc(Oc2cc3cc(-c4cnccn4)[nH]c3cc2[C@H]2CCCN2C(C)=O)cn1` [Example 27], the Emax [1] was 957%, the EC50 [1] was 120 nM and the solubility at 60 min [2] was > 170 µM.
